Results taken from publication PMC11793105, “A kalihinol analog disrupts apicoplast function and vesicular trafficking in P. falciparum malaria” (Science (New York, N.Y.), 2024).
Where two headings read alike, the source gives them in different places.

Legend:
[1] = system: P. falciparum 3D7 (MRA-102, drug sensitive); test: SYBR Green I growth inhibition assay, 3D7; assay type: cell-based; conditions: Plasmodium falciparum
Experimental: Fig. 1. […] (B) SYBR Green–based dose response assays were conducted on early-ring stage parasites (6 hours after invasion). […] 3D7 WT (blue), NF54 (green), drug-resistant strains Dd2 (red), HB3 (black), W2 (gray), and D10-ACP-GFP (purple) lines (Sigmoidal, 4PL, X is concentration, n ≥ 3, nonlinear regression, CI: 95%). (C) Schematic diagram of the development of P. falciparum after two consecutive erythrocytic cycles. The time points at which MED6-189 was introduced are depicted in green. HPS, hours post synchronization. […] The images depict various developmental stages of the parasite’s intraerythrocytic life cycle. Bordered images represent time points when drug was first introduced (n = 3 biological replicates, P < 0.05).
Detailed information on materials and methods is available in the supplementary materials. […] P. knowlesi assays were quantitatively measured by flow cytometry using SYBR Green I and Mitrotracker Deep Red, as previously described ([84], [85]), on a Beckman Coulter CytoFLEX. […]
P. falciparum in vitro SYBR green fluorescence-based assays The anti-malarial activity of individual analogues were evaluated in-vitro against P. falciparum 3D7 (MRA-102, drug […]
green-I based fluorescence assay. Parasite growth rate and stages of development were determined via microscopy through Giemsa-stained smears of the cultures. […]

[2] = Time course stability to conditions of varying pH (mass spectrometric assay); assay type: physicochemical; conditions: aqueous buffers pH 2-7, room temperature, 10 min to 16 h; stable down to pH 4
Experimental: removed under reduced pressure in a rotary evaporator then under high vacuum to afford bis-formamide GB-209-3 as a colorless oil that solidified upon standing (5.2 mg, 96% yield).
Note: GB-209-3 was observed as four different amide rotamer ic species (estimated ratio = 54:35:7:4) under ambient conditions, complicating NMR spectroscopic analysis:
Isonitriles are known to be somewhat reactive functional groups. While previous studies […]
stability,3 we also wanted to account for the potential stomach-acid-catalyzed hydrolysis of the isonitriles in the course of in vivo experiments. We developed a mass spectrometric assay to understand the acid stability of the isonitriles with respect to hydrolysis to the corresponding formamides. […]
Supporting Table 1. a. Ionization (ES+) and b. inlet parameters for quantification of MED6-189 and formamides GB-209-2, and GB-209-3. […]
GB-209-2 and GB-209-3 were determined for each aliquot and plotted over time for respective pH values in the figure below describing the time course stability of MED6 -189 to conditions of varying pH over time via quantitative analysis of formamide products GB -209-2 and GB-209-3.
Time course stability of MED6 -189 to conditions of varying pH over time via quantitative analysis of formamide products GB -209-2 and GB-209-3. […]

[3] = system: P. falciparum metabolites; test: LC-MS metabolomic profiling (lipids and polar metabolites); assay type: cell-based, Plasmodium falciparum; conditions: treated parasites, second IEC (72 hours after treatment)

[C-]#[N+][C@]1(C)CC[C@H]2[C@@H]([C@@H](C(C)C)CC[C@]2(C)[N+]#[C-])[C@H]1O [MED6-189]
IC50 ([1]; 3D7, read-out: IC50 (µM) P. falciparum (3D7)): 0.015 µM | IC50 ([1]; 3D7, early-ring stage (6 h after invasion), 72 h exposure, read-out: IC50): 0.014 ± 0.002 µM | stability to aqueous acidic conditions (hydrolysis to formamides) [2]: reasonable stability | increase in lysophosphatidylcholine (LPC) steady-state levels [3]: ~3.5 fold
